Patent publication US20230145342A1, “COMBINATORY TREATMENT” (AALTO UNIVERSITY FOUNDATION SR, priority 2020, published 2023)
Converted amounts (≈) assume the structure as drawn. “Also recorded” adds a separate entry of the source.

What was measured:
[1] = test system: resistant P. aeruginosa strains PA 5550, PA 5842, PA 5827, PA 5832, PA 5834 and PA 5539; experiment: MIC of four antibiotics in presence or absence of P[5]a, Mueller broth; assay type: cell-based, Pseudomonas aeruginosa; conditions: six resistant strains, presence vs absence of P[5]a
From the text: (§1) In FIG. 4 with P. aeruginosa strain PA 5834, P[5]a made the bacterium classify as “susceptible” again, whereas without P[5]a it was fully “resistant” to the antibiotics ceftazidime and cefepime (even growing in the highest concentration we tested). This could have major implications, because there have been many encounters already of “Pan-Drug resistant bacteria” bacteria that are classified as “resistant” to all known antibiotics. They are basically untreatable by current standards. P[5]a Virulence inhibitors, might make those bacteria susceptible again for treatment. In FIG. 5 with P. aeruginosa strain PA 5539, the overall resistance profile of the bacterium was much lower. […] Further testing was done on six resistant P. aeruginosa strains from the Helsinki hospital collection, PA 5550, PA 5842, PA 5827, PA 5832, PA 5834 and PA 5539 with four different antibiotics (amikacin, cefepime, ceftazidime and meropenem).

Pseudomonas aeruginosa = experiment: RNA sequencing / Gene Set Enrichment Analysis with and without P[5]a; assay type: cell-based; conditions: bacterial RNA with vs without P[5]a
From the text: Changes in gene expression levels are grouped in specific “gene sets”, which group all genes related to a specific function, for instance biofilm formation.
Pseudomonas aeruginosa is known to be one of the most problematic pathogenic micro-organisms. Indeed, in a laboratory environment, P. aeruginosa is resistant to nearly all antibiotics within a period of 3 to 4 days. Comparing the sequencing results of the bacterial RNA, with and without a pillarene[5]a (P[5]a, CAS No. 1351445-28-7), allowed the inventors to identify the processes that are affected by comparison with pre-determined gene set terms from the “KEGG pathway analysis” and the “GO Ontology” (see FIG. 1). These gene sets contain all the genes associated with a certain term, for instance “Biofilm”, and the inventors referenced all the genes affected by P[5]a, to these gene sets.

P. aeruginosa PAO1 [2] = experiment: Pyocyanin toxin production followed over 14 days; assay type: cell-based, Pseudomonas aeruginosa; conditions: for pyocyanin toxin formation: throughout 14 days
From the text: (§2) The effect of P[5]a on encountering resistance development in a pathogenic Gram-negative bacterium, Pserudomonas aeruginosa, strain PA01 was studied over 14-day period. The development of resistance over 14 continuous days by the pathogen PAO1 towards treatment with four clinically relevant antibiotics (meropenem, cefepime, aztreonam and tobramycin) and P[5]a was compared. […] In all antibiotic treatments, reduced susceptibility was observed from day 4 onwards, with complete resistance to all treatments after 12 days.

P. aeruginosa PAO1 [3] = experiment: Antibiotic resistance buildup, daily MIC over 14 consecutive days; assay type: cell-based, Pseudomonas aeruginosa
From the text: Area below the yellow line means that the bacterium is classified as susceptible to the antibiotic. The area in between yellow and red means that the bacterium is intermediate susceptible to the antibiotic. The area above the red line means that the bacterium is classified as resistant to the antibiotic (According to the “Performance Standards for Antimicrobial Susceptibility Testing”, which is maintained by the Clinical and Laboratory Standards Institute).
Because of this, a combined administration of P[5]a with a variety of antibiotics was tested. MIC values with two different antibiotics, meropenem and cefepime (FIG. 2) were tested, over a period of 14 consecutive days (which more than surpasses the length of normal treatments, 7-10 days), when administered together with and without 2.5 mM P[5]a.
In this experiment, the minimum inhibitory concentration MIC was analyzed daily for 14 consecutive days, and the highest MIC values (so the highest concentration of antibiotic where the bacteria still grew) was used for the next day. This way, the buildup of resistance over time can be monitored. In FIG. 2, the area below the yellow line means that the bacterium is classified as susceptible to the antibiotic, the area in between yellow and red means that the bacterium is intermediate susceptible to the antibiotic and the area above the red line means that the bacterium is classified as resistant to the antibiotic (According to the “Performance Standards for Antimicrobial Susceptibility Testing”, which is maintained by the Clinical and Laboratory Standards Institute).
as §2
The effect of P[5]a on the enhancement of the penetration of coadministered antibiotics having intracellular targets (aztreonam, cefepime, meropenem and tobramycin) was studied over 14-day period in a pathogenic Gram-negative bacterium, Pserudomonas aeruginosa, strain PA01. […] MIC values were categorized in three groups according to the Clinical and Laboratory Standards Institute: susceptible, intermediate susceptible and resistant.

[4] = test system: Pserudomonas aeruginosa, strain PA01; experiment: Biofilm formation; assay type: cell-based, Pseudomonas aeruginosa; conditions: P[5]a in high concentrations
Procedure: The effect of P[5]a on the formation of biofilm by a pathogenic Gram-negative bacterium, Pserudomonas aeruginosa, strain PA01 was measured.
Biofilm is, alongside pyocyanin production, an important indicator of virulence in P. aeruginosa.

[5] = test system: MDR resistant clinical isolates; experiment: Coadministered antibiotics with P[5]a in MDR resistant clinical isolates (Example 8); assay type: cell-based
From the text: (§3) The effect of P[5]a on the penetration and efficacy of coadministered antibiotics Amikacin (a), Cefepime (b), Ceftazidime (c) and Meropenem (d) in MDR resistant clinical isolates were studied.

[6] = Analytical ultracentrifuge sedimentation velocity analysis of P[5]a with LPS; assay type: binding, Pseudomonas aeruginosa; conditions: 135 μM P[5]a and 35 μM LPS, UV absorbance at 305 nm
Procedure: A clear initial peak of unbound P[5]a can be observer at low molecular weight (2260 Da), followed by a long and polydisperse collection of peaks, ranging from low molecular weight (S), to very high molecular weight (60.000 kDa) See Example 6.
The interaction of P[5]a with lipopolysaccharides of P. aeruginosa, strain PA10 was measured using AUC.
Analytical ultracentrifugation (AUC) is based on sedimentation of colloidal particles in a centrifugal field. During centrifugation particles move toward the bottom of the measuring cell. This movement leads to redistribution of particles along the measuring cell, which in turn can be expressed as a change in concentration along the measuring cell. The absorbance detector was used to follow the changes caused by centrifugation (absorbance is proportional to concentration). In simple words, in AUC the inventors measure how concentration changes during centrifugation, so they collect concentration profiles. Interaction between particles can be measured as a result of changes in the sedimentation profiles. […]
The spectra of both P[5]a and LPS from P. aeruginosa were first analysed separately (see FIG. 12 a and b). […] Because only the sedimentation of P[5]a was detected at 305 nm, the inventors were certain that any changes observed in the sedimentation profile, come from interactions between P[5]a and other particles. […]

[7] = test system: multidrug resistant P. aeruginosa strain PA 5539; experiment: MIC of antibiotics without and with P[5]a, Luria broth (sensitizing effect test); assay type: cell-based, Pseudomonas aeruginosa; conditions: with vs without P[5]a
Procedure: (§4) Values in blue, yellow and orange indicate the bacterium is categorized as “susceptible”, “intermediate susceptible” and “resistant”, respectively, according to the “Performance Standards for Antimicrobial Susceptibility Testing”, which is maintained by the Clinical and Laboratory Standards Institute.
(§5) So, it was tested whether P[5]a could sensitize (increase the efficacy of) already resistant P. aeruginosa strains PA 5834 (FIG. 4) and PA 5539 (FIG. 5), that are resistant to a wide variety of antibiotics. To test this, two MDR P. aeruginosa strains from clinical isolates were used. These isolates were obtained from patients in the Meilahti hospital (Helsinki, Finland). The antibiotics used, and their different mechanisms of actions, are described in Table 2.
as §1

[8] = test system: Pseudomonas aeruginosa 5539; experiment: Resistance profile of strain (Table 3); assay type: cell-based; conditions: strain 5539
[9] = test system: Pseudomonas aeruginosa 5832; experiment: Resistance profile of strain (Table 3); assay type: cell-based; conditions: strain 5832
From the text: as §3

[10] = test system: Pseudomonas aeruginosa 5542; experiment: Resistance profile of strain (Table 3); assay type: cell-based; conditions: strain 5542 P. aeruginosa
From the text: as §3

[11] = test system: Pseudomonas aeruginosa 5550; experiment: Resistance profile of strain (Table 3); assay type: cell-based; conditions: strain 5550
From the text: as §3

[12] = test system: Pseudomonas aeruginosa 5834; experiment: Resistance profile of strain (Table 3); assay type: cell-based; conditions: strain 5834
From the text: as §3

[13] = test system: Pseudomonas aeruginosa 2798 (ATCC 2798); experiment: Resistance profile of strain (Table 3); assay type: cell-based; conditions: strain 2798 (ATCC 2798)
From the text: as §3

[14] = test system: Pseudomonas aeruginosa 5827; experiment: Resistance profile of strain (Table 3); assay type: cell-based; conditions: strain 5827
[15] = test system: multidrug resistant P. aeruginosa strain PA 5834; experiment: MIC of antibiotics without and with P[5]a, Luria broth (sensitizing effect test); assay type: cell-based, Pseudomonas aeruginosa
Procedure: as §4, §5, §1

SMILES: C[N+](C)(C)CCOc1cc2c(OCC[N+](C)(C)C)cc1Cc1cc(OCC[N+](C)(C)C)c(cc1OCC[N+](C)(C)C)Cc1cc(OCC[N+](C)(C)C)c(cc1OCC[N+](C)(C)C)Cc1cc(OCC[N+](C)(C)C)c(cc1OCC[N+](C)(C)C)Cc1cc(OCC[N+](C)(C)C)c(cc1OCC[N+](C)(C)C)C2.[Br-].[Br-].[Br-].[Br-].[Br-].[Br-].[Br-].[Br-].[Br-].[Br-] [P[5]a, 4,9,14,19,24,26,28,30,32,34-Deca[2-(trimethylammonio)ethoxy]hexacyclo[21.2.2.2^3,6.2^8,11.2^13,16.2^18,21]pentatriaconta1(25),3,5,8,10,13,15,18,20,23,26,28,30,32,34-pentadecaene ⋅ 10bromide]
- sensitizing effects on amikacin, cefepime, ceftazidime and meropenem [1]: In all cases the sensitizing effects were observed
- bacterial antibiotic resistance genes (MexCD-OprJ, MexAB-OprM, mexXY) (Pseudomonas aeruginosa): significantly down-regulates
- gene sets associated with virulence factors (Biofilm, Quorum Sensing, Bioverdine biosynthetic process, Biosynthesis of Secondary Metabolites) (Pseudomonas aeruginosa; KEGG and GO gene sets): downregulated
- resistance development towards P[5]a (decrease of effectivity of toxin inhibition) (P. aeruginosa PAO1 [2]; 14-day period): does not encounter resistance development; also recorded: no observable decrease of effectivity
- pyocyanin toxin formation (P. aeruginosa PAO1 [2]): successfully suppressed
- bacterial viability (P. aeruginosa PAO1 [2]; throughout 14 days of P[5]a treatment): no decrease
- pyocyanin toxin formation (P. aeruginosa PAO1 [2]; listed as P5a): very efficient in suppressing
- direct antimicrobial properties (P. aeruginosa PAO1 [3]): lacks direct antimicrobial properties
- buildup of resistance to meropenem and cefepime when P[5]a is added (P. aeruginosa PAO1 [3]; 2.5 mM P[5]a, 14 consecutive days): significantly reduced
- biofilm formation [4]: significantly reduced
- penetration and efficacy of coadministered antibiotics Amikacin, Cefepime, Ceftazidime and Meropenem [5]: enhances
- interaction with LPS [6]: strong interaction; also recorded: capable of interacting with multiple LPS particles
- sensitizing effect on antibiotics [7]: sensitizing effect could be seen with nearly all antibiotics

SMILES: CO/N=C(\C(=O)N[C@@H]1C(=O)N2C(C(=O)[O-])=C(C[N+]3(C)CCCC3)CS[C@H]12)c1csc(N)n1 [cefepime, Cefepime]
- Antibiotic resistance (category) [8]: intermediate
- Antibiotic resistance (value given with the category, MIC) [8]: 8 µg
- Antibiotic resistance (category) [9]: Intermediate susceptible
- Antibiotic resistance (value given with the category, MIC) [9]: 8 µg
- Antibiotic resistance (category) [10]: resistant
- Antibiotic resistance (value given with the category, MIC) [10]: 32 µg
- Antibiotic resistance (category) [11]: Intermediate susceptible
- Antibiotic resistance (value given with the category, MIC) [11]: 16 µg
- Antibiotic resistance (category) [12]: resistant
- Antibiotic resistance (value given with the category, MIC) [12]: cefepime 64 ug, ceftazidime 64 ug and meropenem 64 ug
- Antibiotic resistance (category) [13]: Intermediate susceptible
- Antibiotic resistance (category) [14]: resistant
- Antibiotic resistance (value given with the category, MIC) [14]: 32 µg
- MIC (P. aeruginosa PAO1 [3]; Pseudomonas aeruginosa, PAO1, 96 h, after four days, highest concentration of antibiotic included): 128 µg/mL (≈ 266 µM)
- development of resistance by the pathogen to the respective antibiotic (P. aeruginosa PAO1 [3]; coadministration of P[5]a with the antibiotic, 14-day period): greatly slowed
- susceptibility classification (CLSI) ([15]; with P[5]a): susceptible
- susceptibility classification (CLSI) ([15]; without P[5]a): resistant

SMILES: CC(C)(O/N=C(\C(=O)N[C@@H]1C(=O)N2C(C(=O)[O-])=C(C[n+]3ccccc3)CS[C@H]12)c1csc(N)n1)C(=O)O [ceftazidime, Ceftazidime]
- Antibiotic resistance (category) [8]: resistant
- Antibiotic resistance (value given with the category, MIC) [8]: 8 µg
- Antibiotic resistance (category) [9]: resistant
- Antibiotic resistance (value given with the category, MIC) [9]: 16 µg
- Antibiotic resistance (category) [10]: resistant
- Antibiotic resistance (value given with the category, MIC) [10]: 32 µg
- Antibiotic resistance (category) [11]: resistant
- Antibiotic resistance (value given with the category, MIC) [11]: 16 µg
- Antibiotic resistance (category) [12]: resistant
- Antibiotic resistance (value given with the category, MIC) [12]: cefepime 64 ug, ceftazidime 64 ug and meropenem 64 ug
- Antibiotic resistance (category) [13]: Aztreonam & Cefepime, Resistant to Ceftazidime, Cirpofloxacin,
- Antibiotic resistance (category) [14]: resistant
- Antibiotic resistance (value given with the category, MIC) [14]: 64 µg
- susceptibility classification (CLSI) ([15]; with P[5]a): susceptible
- susceptibility classification (CLSI) ([15]; without P[5]a): resistant
